Test results from patent US6858741B2, “Alkyl-dihalogenated phenyl-substituted ketoenols useful as pesticides and herbicides” (Bayer Aktiengesellschaft, priority 1995, dated 2005).

Legend:
Assay type in all cases: in vivo
test plants = experiment: Pre-emergence test/greenhouse; details: greenhouse, 250 g/ha, rated after three weeks vs untreated control, 0%=no action, 100%=total destruction
Description: [table] To produce a suitable preparation of active compound, 1 part by weight of active compound is mixed with the stated amount of solvent, the stated amount of emulsifier is added and the concentrate is diluted with water to the desired concentration. Seeds of the test plants are sown in normal soil and, after 24 hours, watered with the preparation of the active compound. It is expedient to keep constant the amount of water per unit area The concentration of the active compound in the preparation is of no importance, only the amount of active compound applied per unit area being decisive. After three weeks, the degree of damage to the plants is rated in % damage in comparison to the development of the untreated control. The figures denote: • 0%=no action (like untreated control) 100%=total destruction [table]

[1] = tested on: greenhouse red spider mite or two-spotted spider-mite (Tetranychus urticae); experiment: Tetranychus test (OP-resistant/immersion treatment); details: after 13 days; active compound concentration 0.1%; immersion treatment of bean plants
Description: [table] To produce a suitable preparation of active compound, 1 part by weight of active compound is mixed with the stated amount of solvent and the stated amount of emulsifier, and the concentrate is diluted with water to the desired concentrations. Bean plants (Phaseolus vulgaris) which are severely infested with all development stages of the greenhouse red spider mite or two-spotted spider-mite (Tetranychus urticae) are immersed in a preparation of active compound of the desired concentration. After the specified period of time, the destruction in % is determined. 100% means that all the spider mites have been killed; 0% means that none of the spider mites have been killed.

[2] = tested on: green rice leafhopper (Nephotettix cincticeps); experiment: Nephotettix test; details: after 6 days; active compound concentration 0.1%; dipped rice seedlings
Description: [table] To produce a suitable preparation of active compound, 1 part by weight of active compound is mixed with the stated amount of solvent and the stated amount of emulsifier, and the concentrate is diluted with water to the desired concentration. Rice seedlings (Oryza sativa) are treated by being dipped into the preparation of active compound of the desired concentration and are infested with the green rice leafhopper (Nephotettix cincticeps) while the seedlings are still moist. After the specified period of time, the destruction in % is determined. 100% means that all the leafhoppers have been killed; 0% means that none of the leafhoppers have been killed.

[3] = tested on: caterpillars of the diamond-back moth (Plutella maculipennis); experiment: Plutella test; details: after 7 days; active compound concentration 0.1%; dipped cabbage leaves
Description: [table] To produce a suitable preparation of active compound, 1 part by weight of active compound is mixed with the stated amount of solvent and the stated amount of emulsifier, and the concentrate is diluted with water to the desired concentration. Cabbage leaves (Brassica oleracea) are treated by being dipped into the preparation of active compound of the desired concentration and are infested with caterpillars of the diamond-back moth (Plutella maculipennis) while the leaves are still moist. After the specified period of time, the destruction in % is determined. 100% means that all the caterpillars have been killed; 0% means that none of the caterpillars have been killed.

[4] = tested on: mustard beetle larvae (Phaedon cochleariae); experiment: Phaedon larvae test; details: after 7 days; active compound concentration 0.1%; dipped cabbage leaves
Description: [table] To produce a suitable preparation of active compound, 1 part by weight of active compound is mixed with the stated amount of solvent and the stated amount of emulsifier, and the concentrate is diluted with water to the desired concentration. Cabbage leaves (Brassica oleracea) are treated by being dipped into the preparation of the active compound of the desired concentration and are infested with mustard beetle larvae (Phaedon cochleariae) while the leaves are still moist. After the specified period of time, the destruction in % is determined. 100% means that all the beetle larvae have been killed; 0% means that none of the beetle larvae have been killed.

Row | Structure (SMILES) | degree of damage, Alopecurus myosuroides (test plants) | degree of damage, Avena fatua (test plants) | degree of damage, Setaria viridis (test plants) | degree of damage, Sinapis arvensis (test plants) | degree of damage, Beta vulgaris (test plants) | activity (destruction) [1] | destruction [2] | destruction [3] | destruction [4] | degree of damage, Amaranthus (test plants)
1 | CCOC(=O)OC1=C(c2c(Cl)cc(C)cc2Cl)C(=O)NC12CCC(C)CC2 (single isomer, unassigned) [Example I-1-c-6] | 100% | 100% | 100% | 95% | – | – | – | – | – | –
2 | COCC(C)C(=O)OC1=C(c2c(C)cc(Cl)cc2Cl)C(=O)NC12CCC(C)CC2 (single isomer, unassigned) [Example I-1-b-13] | 100% | 80% | 100% | 90% | 30% | – | – | – | – | –
3 | CC(=O)OC1=C(c2c(C)cc(Cl)cc2Cl)C(=O)NC12CCC(C)CC2 (single isomer, unassigned) [Example I-1-b-10] | 100% | 100% | 100% | 100% | 20% | 100% | 100% | – | – | –
4 | Cc1cc(Cl)c(C2=C(O)C3(CCC(C)CC3)NC2=O)c(Cl)c1 (single isomer, unassigned) [Example I-1-a-7] | 100% | 90% | 100% | 100% | – | 100% | 100% | 100% | – | –
5 | Cc1cc(Cl)c(C2=C(O)C3(CCCC(C)C3)NC2=O)c(Cl)c1 (single isomer, unassigned) [Example I-1-a-8] | 100% | 40% | 100% | 100% | – | – | 100% | – | 100% | –
6 | Cc1cc(Cl)cc(Cl)c1C1=C(O)C2(CCCC(C)C2)NC1=O (single isomer, unassigned) [Example I-1-a-2] | 100% | 90% | 100% | – | 0% | – | 100% | – | 100% | –
7 | CCOC(=O)OC1=C(c2c(Cl)cc(C)cc2Cl)C(=O)NC12CCCC(C)C2 (single isomer, unassigned) [Example I-1-c-7] | 100% | 80% | 100% | 80% | 0% | – | – | – | – | –
8 | Cc1cc(Cl)c(C2=C(OC(=O)OCC(C)C)C3(CCCCC3)SC2=O)c(Cl)c1 [Example I-3-c-1] | – | – | – | – | 0% | 100% | – | – | – | 70%
9 | CCOC(=O)OC1=C(c2c(C)cc(Cl)cc2Cl)C(=O)NC12CCC(C)CC2 (single isomer, unassigned) [Example I-1-c-4] | 100% | 100% | 100% | 100% | 50% | 100% | 100% | – | – | –
10 | CCOC(=O)OC1=C(c2c(C)cc(Cl)cc2Cl)C(=O)NC12CCCCC2 [Example I-1-c-3] | 80% | 80% | 100% | 100% | 30% | – | 100% | – | – | –
11 | Cc1cc(Cl)cc(Cl)c1C1=C(OC(=O)OCC(C)C)C2(CCC(C)CC2)NC1=O (single isomer, unassigned) [Example I-1-c-13] | – | – | – | – | – | – | 100% | – | – | –
12 | Cc1cc(Cl)cc(Cl)c1C1=C(O)C2(CCCCC2)SC1=O [Example I-3-a-3] | – | – | – | – | – | – | – | 100% | 100% | –
13 | Cc1cc(Cl)c(C2=C(O)C3(CCCCC3)NC2=O)c(Cl)c1 [Example I-1-a-9] | – | – | – | – | – | – | 100% | – | 100% | –
14 | CCOCC(=O)OC1=C(c2c(C)cc(Cl)cc2Cl)C(=O)NC12CCCC(C)C2 (single isomer, unassigned) [Example I-1-b-4] | 95% | 80% | 100% | 80% | 0% | – | – | – | – | –
15 | Cc1cc(Cl)c(C2=C(OC(=O)C(C)(C)C)C3(CCCCC3)SC2=O)c(Cl)c1 [Example I-3-b-1] | – | – | – | – | – | 100% | 100% | 100% | – | –
16 | Cc1cc(Cl)c(C2=C(O)C3(CCOCC3)NC2=O)c(Cl)c1 [Example I-1-a-10] | – | – | – | – | – | 100% | – | – | 100% | –
17 | CCOC(=O)OC1=C(c2c(C)cc(Cl)cc2Cl)C(=O)NC12CCCC(C)C2 (single isomer, unassigned) [Example I-1-c-2] | – | – | – | – | – | – | – | 100% | – | –
18 | Cc1cc(Cl)cc(Cl)c1C1=C(OC(=O)c2ccc(Cl)cc2)C2(CCC(C)CC2)NC1=O (single isomer, unassigned) [Example I-1-b-12] | 100% | 80% | 100% | 95% | 20% | – | – | – | – | –
19 | Cc1cc(Cl)cc(Cl)c1C1=C(OC(=O)C(C)C)C2(CCCCC2)NC1=O [Example I-1-b-8] | 95% | 50% | 100% | 100% | 0% | – | – | – | – | –
20 | Cc1cc(Cl)c(C2=C(O)C3(CCCCC3)SC2=O)c(Cl)c1 [Example I-3-a-2] | – | – | – | – | 0% | 100% | 100% | – | 100% | 60%
21 | Cc1cc(Cl)cc(Cl)c1C1=C(O)C2(CCCCC2)NC1=O [Example I-1-a-3] | 100% | – | 100% | 80% | 0% | – | 100% | 100% | – | –
22 | Cc1cc(Cl)c(-c2c(O)c(C)c(C3CCCC3)oc2=O)c(Cl)c1 [I-5-a-7] | 80% | – | – | 95% | 0% | – | – | – | – | –
23 | Cc1cc(Cl)cc(Cl)c1C1=C(O)C2(CCC(C)CC2)NC1=O (single isomer, unassigned) [Example I-1-a-4] | 100% | 100% | 100% | 95% | 0% | – | 100% | 100% | – | –
24 | CCC1(C)SC(=O)C(c2c(C)cc(Cl)cc2Cl)=C1O (centres unmarked) [Example I-3-a-1] | – | – | – | – | – | – | – | 100% | 100% | –
25 | CC(=O)OC1=C(c2c(C)cc(Cl)cc2Cl)C(=O)NC12CCCC(C)C2 (single isomer, unassigned) [Example I-1-b-2] | 100% | 80% | 100% | 70% | 0% | – | – | 100% | – | –
26 | Cc1cc(Cl)cc(Cl)c1C1=C(OC(=O)C(C)C)C2(CCC(C)CC2)NC1=O (single isomer, unassigned) [Example I-1-b-11] | 95% | 40% | 100% | 90% | 30% | – | – | – | – | –
27 | Cc1cc(Cl)c(C2=C(OC(=O)C(C)C)C3(CCCC(C)C3)NC2=O)c(Cl)c1 (single isomer, unassigned) [Example I-1-b-20] | 95% | – | 90% | 80% | 30% | – | – | – | – | –
28 | Cc1cc(Cl)c(C2=C(O)C(C)(C(C)C)NC2=O)c(Cl)c1 (centres unmarked) [Example I-1-a-11] | – | – | – | – | – | – | 100% | – | 100% | –
